What was measured:
[1] = tested on: ICAM-1 on RPMI-8226 tumor cells; assay: ICAM-1 expression on MM cells isolated from treated mice (flow cytometry); type: in vivo, SCID mice; conditions: disseminated RPMI-8226 model, cells collected at termination
Protocol: Organs for FACS analysis were collected at scarification of mice, and cells from tissues were prepared by mechanistic dissociation and dispase/collagenase enzymatic digestion (Gibco, France). Cells were stained with anti-human CD38 antibody (PerCP-Cy5, Becton Dickinson), an anti-mouse CD45 (PE, Becton Dickinson) and human ICAM-1 (BI-505 IgG1 AF647, BioInvent) and incubated in the dark for 15 min at room temperature. After the incubation, cells were washed twice and the surface fluorescence of cells was analyzed with a flow cytometer apparatus (LSRII) at the Flow Cytometry Facility of the University of Burgundy.
The health status and behavior of mice was recorded every day and body weight of mice was recorded twice a week. […] Upon termination, bone marrow, spinal cord, adrenal glands and kidneys were collected and examined for ICAM-1 expression on tumor cells. To distinguish cells of human versus murine origin, an anti-mouse CD45 mAb was used CD45. […] In addition, cells were stained with AF647 conjugated anti ICAM-1 mAb and thereafter analyzed in a FACS LSRII. Bone marrow was mechanically dissociated to a single cell suspension whereas adrenal glands, kidneys and spinal cord cells were prepared using a combination of mechanistic dissociation and dispase/collagenase digestion (Gibco, France). Prior to the experiment, dispase and collagenase treatments were shown not to effect ICAM-1 levels on MM cell lines.

ARH-77 cells [2] = assay: Disseminated scid/ARH-77 model of multiple myeloma; type: in vivo, scid mice; conditions: i.v. on Days 7, 10, 13, 16; antibody 2 mg/kg, bortezomib 0.5 mg/kg; vs control
Protocol: ARH-77 cells or RPMI-8226 were injected intraveniously into the SCID mice. (FIG. 6A) ARH-77 model. Animals received intravenous injections with antibody at 2 mg/kg or bortezomib (Velcade) at 0.5 mg/kg on Days 7, 10, 13, and 16 (as indicated by arrows in the graph). (FIG. 6B) RPMI-8226-model. BI-505 or control mAb was administered i.v at 2 mg/kg, twice weekly for 8 weeks, bortezomid, at 1 mg/kg, once weekly for 8 weeks, lenalidomide p.o with 2 mg/kg for 2 cycles consisting of 5 days of treatment and 2 days of wash out, melphalan i.v at 3 mg/kg, once weekly for 8 weeks, and dexamethasone (DXH) at 6 mg/kg/inj 3 times/week for 2 consecutive weeks. There were 6-10 mice per treatment group. Statistical significance was calculated using Log-rank Graphpad Prism software and determined at ***p<0.001. (FIG. 6C) To study the ICAM-1 level on human cells, the cells from different organs were stained and gated for CD38+/mCD45−/BI-505+. Left panel indicates the percentage of BI-505 positive cells in CD38+/mCD45 population and right panel the mean fluorescent intensity of the positive cells.
The anti-myeloma effect of BI-505 was examined in a disseminated model of multiple myeloma. The early and advanced disseminated model of multiple myeloma was performed at Oncodesign, Dijon, France. Briefly: 1×10^6 (early) or 5×10^6 (advanced) ARH-77 tumor cells in 200 μL of RPMI 1640 were injected intravenously (i.v) into the caudal vein of female scid mice (D0). Tumor cell injections were performed twenty four to forty eight hours after a whole body irradiation of mice (1.8 Gy, ^60Co, INRA, BRETENNIERES). The treatment was started at D5 (RPMI-8226 model) or D7 ([…] model) except alkeran which was administered at D10. B11 or control mAb was administered i.v. at 2 mg/kg, twice weekly for 8 weeks, bortezomib, at 1 mg/kg, once weekly for 8 weeks, lenalidomide p.o with 2 mg/kg for 2 cycles consisting of 5 days of treatment and 2 days of wash out, melphalan i.v. at 3 mg/kg, once weekly for 8 weeks and dexamethasone at 6 mg/kg, injected 2 consecutive weeks.
The disseminated model of scid/ARH-77 is a well-established experimental model that resembles human multiple myeloma disease progression and disease manifestation in many respects (33). We utilized this model to further characterize IgG B11 anti-myeloma activity (FIG. 6A). Intravenous injection of irradiated scid mice with 1×10^6 ARH-77 cells was previously shown to result in their dissemination and establishment in mouse bone-marrow, and resulting osteolytic bone-lesions and hypercalcemia, and ultimately, in animal paralysis or difficulty of breathing at which time animals were immediately sacrificed. […]

[3] = tested on: HUVEC and HMVEC endothelial cells; assay: PCD in normal endothelial cells; type: cell-based; conditions: resting or activated (IFN-γ) cells
Protocol: Target cells were seeded in 96-well culture plates at a density of 2×10^6 cells/mL culture medium. Titrated concentrations of IgG1 B11 or different negative and positive control antibodies were added to the cells, in the absence or presence of anti-human Fab fragment (Jackson ImmunoResearch) for cross-linking. The cells were then incubated for 16 hours at 37° C. in a humidified atmosphere of 5% CO2. The cells were harvested and stained for Annexin V-488/Propidium Iodide (Invitrogen, Sweden) and analysed using flow cytometer (FACS Calibur, BD Bioscience).

[4] = tested on: ICAM-1 expressing tumor cell lines; assay: Complement-dependent cytotoxicity in tumor cell lines; type: cell-based; conditions: panel of ICAM-1 expressing tumor cell lines; human serum
Protocol: Target cells were harvested and incubated in RPMI medium with antibodies at 5 μg/mL or at titrated concentrations between 0.01-100 μg/mL for 60 min on ice. Cells were thereafter washed and resuspended in cold medium before dispension into flow cytometry tubes. Treatments were performed in triplicates. Human serum, normal or heat-inactivated, (Sigma, Sweden) was added to tubes and the samples were incubated for 2 h at 37° C. After completed incubation ToPo-Pro-3 was added at a final concentration of 0.3 μM and cells were analyzed for membrane permeabilization using flow cytometry.

ARH-77 cells [5] = assay: Subcutaneous scid/ARH-77 xenograft, prophylactic model; conditions: 20 mg/kg twice weekly i.p., commencing one day after tumor cell inoculation
Protocol: Tumor cells were injected subcutaneously into the left flank of SCID mice. Mice received twice-weekly intraperitoneal injections with BI-505, control antibody or rituximab at doses of 20, 2 and/or 0.2 mg/kg commencing one day after tumor cell inoculation. There were 8 to 10 animals per treatment group. […] Statistical significance was calculated relative to control antibody treatment using Kruskal-Wallis Test (Nonparametric ANOVA) with Dunn's Multiple Comparisons Test (tumor volume) or the log-rank test (mouse survival) using Graphpad Instat or Prism software, respectively. Statistical significance was considered for *p<0.05, **p<0.01, and ***p<0.001.
Tumor cells were injected subcutaneously into the left flank of SCID mice. Mice received twice-weekly intraperitoneal injections with BI-505 at doses of 0.02-20 mg/kg commencing day after tumor cell inoculation. There were 8-10 animals per treatment group. […] Statistical significance was calculated relative to control antibody treatment using Kruskal-Wallis Test (Nonparametric ANOVA) with Dunn's Multiple Comparisons Test (tumor volume) or the log-rank test (mouse survival) using Graphpad Instat or Prism software, respectively. Statistical significance was considered for *p<0.05, **p<0.01, and ***p<0.001. Graphs illustrate representative experiments out of several performed.
(FIG. 7A) ARH-77 cells were injected subcutaneously into the left flank of SCID mice (n=8 per group). Mice were treated with the different BI-505 isotypes twice weekly. […] Statistical significance was calculated relative to control antibody treatment using Kruskal-Wallis Test (Nonparametric ANOVA) with Dunn's Multiple Comparisons Test. Statistical significance was considered for *p<0.05, **p<0.01, and ***p<0.001.
Mice were anaesthetized with a mixture of sevofluran and oxygen prior to myeloma cell inoculation and 1-5×10^6 myeloma cells were then subcutaneously injected in a volume of 100 μl into the left flank.

ARH-77 tumors = assay: Subcutaneous scid/ARH-77 xenograft, established (palpable tumor) model; conditions: IgG B11 even at 0.2 mg/kg (100-fold lower dose than rituximab)
Protocol: Mice were anaesthetized with a mixture of sevofluran and oxygen prior to myeloma cell inoculation and 1-5×10^6 myeloma cells were then subcutaneously injected in a volume of 100 μl into the left flank. Treatment with antibodies by intraperitonial (i.p.) injections was started either the day after cell inoculation (prophylactic model) or when tumors reached a size of approximately 100 mm^3 (established model). Antibodies were administrated in PBS in a total volume of 200 μL. Treatment with PBS or isotype control was used as control. Tumors were measured with a digital calliper and the tumor volumes were calculated according to formula: width^2×length×0.52. Animals were sacrificed when the tumor sizes reached the ethical limit of 1.5 cm. Surviving mice were sacrificed after a maximum of 5 months. Blood samples collected from the vena cava were centrifuged at 2500 g for 15 min to obtain serum and the samples were stored at −20° C. Tumors were removed for immunohistochemistry, snap frozen and were kept at −85° C.

[6] = Mouse serum antibody levels by ELISA at end of xenograft experiment; type: in vivo; conditions: dose 2 mg/kg; mouse serum at end of experimentation
Protocol: We next performed a dose-titration experiment to establish IgG B11 in vivo potency and the minimal dose achieving maximal anti-tumor activity, using the scid/ARH-77 model system. […] Mouse serum antibody trough concentrations were determined by ELISA at the end of experimentation. Trough antibody concentrations were then plotted against percent of maximal in vivo anti-tumour activity, and against percent of maximal ICAM-1 receptor occupancy and tumour cell PCD at corresponding antibody concentrations in vitro (FIGS. 3C, 3D, 3E, 3F and 3G). Strikingly, a near perfect correlation between antibody concentration and in vitro tumour cell receptor occupancy, in vitro tumor cell PCD, and in vivo anti-tumour activity was observed, consistent with ICAM-1 dependent direct cell cytotoxicity underlying in vivo anti-tumour activity.

mouse FcγRIV = biological target: T1, mouse FcγRIV (Mus musculus, UniProt A0A0B4J1G0); assay: Biacore binding of BI-505 isotype variants to mouse FcγRIV
T1 construct: made in house; host or cells: HEK293E (transient)
T1 sequence (A0A0B4J1G0 21-249): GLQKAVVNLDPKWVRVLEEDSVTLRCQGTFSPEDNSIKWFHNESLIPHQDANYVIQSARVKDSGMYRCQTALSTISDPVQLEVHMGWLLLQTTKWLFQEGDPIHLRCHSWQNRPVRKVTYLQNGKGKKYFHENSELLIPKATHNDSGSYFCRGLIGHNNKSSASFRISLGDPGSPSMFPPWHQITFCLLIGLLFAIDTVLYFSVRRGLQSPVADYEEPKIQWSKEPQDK
Protocol: (§1) His-tagged human FcγRIIIa or mouse FcγRIV were expressed transient in adherent HEK293E cells, purified using Ni-NTA chromatography and characterized using SDS-PAGE and/or Biacore. Surface plasmon resonance (SPR) measurements were perfomed using a Biacore 3000 instrument. Goat α-human-F(ab)′2 F(ab)′2 fragment (Jackson laboratories) was immobilised with a CM-5 chip using a standard amine coupling protocol. IgG1 B11, Iga4 B11, or 297Q B11 were diluted to 15 and 60 μg/mL respectively and added to the surface at […] for 3 min. His tagged human FcγRIIIa or mouse FcγRIV were pre-incubated with an α-HIS antibody (R&D Systems) at a 2:1 molar ratio before addition to the chip surface, […], 1 min. After each cycle the surface was regenerated twice with glycine buffer pH 1.7.

human FcγRIIIa = biological target: T2, human FcγRIIIa (Homo sapiens, UniProt P08637); assay: Biacore binding of BI-505 isotype variants to human FcγRIIIa
T2 construct: made in house; host or cells: HEK293E (transient)
Protocol: as §1

[7] = tested on: B lymphoma cell line (CL-01); assay: ADCC of tumor cells with human NK effector cells; type: cell-based; conditions: human Natural Killer effector cells
Text: Buffy coats from human donors (ordered through Blodcentralen, Lund) were used to isolate peripheral blood mononuclear cells (PBMCs), and subsequently NK cells. Briefly, peripheral blood components were separated using Ficoll Paque PLUS (Amersham Biosciences, Sweden) in LeucoSep tubes (Greiner Bio-One). The PBMC fraction was removed and thoroughly washed in ice-cold DPBS (Invitrogen), before magnetic labeling and separation of the NK cell population using positive or negative NK cell isolation kits and MACS LS columns (Miltenyi Biotec). The purity of the obtained NK cell fractions was analyzed using flow cytometry, after staining with α-CD56 antibodies (BD Biosciences). Target cells were harvested, and incubated in medium with or without the respective antibodies (2 μg/mL) for 60 min on ice. Cells were thereafter washed and resuspended in cold medium before dispension into FACS tubes. Subsequently, isolated NK cells were diluted in ADCC medium and dispensed together with the respective antibody-coated target cells at varying effector/target cell ratios (40:1, 20:1, 5:1 and 1:1). All experiments were performed in triplicates. After completed incubation ToPo-Pro-3 dye and counting beads (Invitrogen) were added and cells were analyzed for membrane permeabilization using flow cytometry.

T2 sequence (P08637 17-254): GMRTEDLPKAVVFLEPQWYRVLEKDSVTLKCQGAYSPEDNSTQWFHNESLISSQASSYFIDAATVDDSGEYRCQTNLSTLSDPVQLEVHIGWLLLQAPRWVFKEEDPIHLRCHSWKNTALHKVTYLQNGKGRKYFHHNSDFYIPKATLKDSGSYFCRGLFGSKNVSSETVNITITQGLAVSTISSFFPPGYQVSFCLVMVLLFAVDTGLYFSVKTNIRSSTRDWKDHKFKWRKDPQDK

Question: For `N[C@@H](Cc1ccc(N(CCCl)CCCl)cc1)C(=O)O` [AIKERAN, Melphalan], which “ICAM-1 expression on tumor cells collected from treated mice” value (shortened to “ICAM-1 expression”) [1] is on record?
Answer: The value was “unchanged, high levels”.

Question: For `Nc1cccc2c1CN(C1CCC(=O)NC1=O)C2=O` (stereo not drawn) [Revlimid, Lenalidomide], which “ICAM-1 expression” value [1] is on record?
Answer: Its value is “unchanged, high levels”.

Question: With `CC(C)C[C@H](NC(=O)[C@H](Cc1ccccc1)NC(=O)c1cnccn1)B(O)O` [bortezomib, reference compound] as the molecule, how does the animal survival (ARH-77 cells [2]) read?
Answer: Its animal survival is “did not significantly enhance animal survival”.

Question: What about the “time to symptomatic disease onset” value (ARH-77 cells [2]) of the same molecule?
Answer: Its value is “insignificantly delayed disease onset”.

Question: What about the “ICAM-1 expression” value [1] of the same molecule?
Answer: The value was “unchanged, high levels”.

Question: With `CC(=O)O[C@H]1C(=O)[C@@]2(C)[C@H]([C@H](OC(=O)c3ccccc3)[C@]3(O)C[C@H](OC(=O)[C@H](O)[C@@H](NC(=O)c4ccccc4)c4ccccc4)C(C)=C1C3(C)C)[C@]1(OC(C)=O)CO[C@@H]1C[C@@H]2O` [paclitaxel, reference compound] as the molecule, how does the “PCD induction in normal endothelial cells” value [3] read?
Answer: Its value is “induced significant endothelial cell”.

Question: What does the source list for rituximab [reference compound]?
Answer: induction of CDC [4]: effectively induced CDC; tumor growth (ARH-77 cells [5]): significant anti-tumor activity albeit less efficaciously; animal survival (ARH-77 tumors): incapable of reducing tumor growth or promoting animal survival; tumor growth (ARH-77 tumors): incapable of reducing tumor growth

B1: IgG4: human IgG4 isotype switch variant of B11 (antibody, V domains shown)
VH: EVQLLESGGGLVQPGGSLRLSCAASGFTFSNAWMSWVRQAPGKGLEWVAFIWYDGSNKYYADSVKGRFTISRDNSKNTLYLQMNSLRAEDTAVYYCARYSGWYFDYWGQGTLVTVSS
VL: QSVLTQPPSASGTPGQRVTISCTGSSSNIGAGYDVHWYQQLPGTAPKLLIYDNNNRPSGVPDRFSGSKSGTSASLAISGLRSEDEADYYCQSYDSSLSAWLFGGGTKLTVLG
Question: Which “In vivo IgG Levels (serum antibody titers)” value [6] does the source give for B1 here?
Answer: The value was 13 ± 3.1 µg/mL.

Question: And the “binding to murine FcγRIV” value (mouse FcγRIV)?
Answer: The value was “but not IgG4 or N297Q-mutant, showed strong binding”.

Question: And the “binding to human FcγRIIIa” value (human FcγRIIIa)?
Answer: Its value is “did not bind to human FcγRIIIa”.

Question: And the “ADCC of target tumor cells” value [7]?
Answer: The value was “did not mediate ADCC”.

B2: N297Q-mutant: FcγR-binding deficient mutant IgG1 isotype switch variant of B11 (antibody, V domains shown)
VH: B1 VH
VL: B1 VL
Question: For B2, which “In vivo IgG Levels (serum antibody titers)” value [6] is on record?
Answer: The value was 9.6 ± 3. μg/mL.

Question: What about the “binding to murine FcγRIV” value (mouse FcγRIV) of the same molecule?
Answer: Its value is “but not IgG4 or N297Q-mutant, showed strong binding”.

Question: What about the “binding to human FcγRIIIa” value (human FcγRIIIa) of the same molecule?
Answer: Its value is “did not bind to human FcγRIIIa”.

Question: What about the “ADCC of target tumor cells” value [7] of the same molecule?
Answer: Its value is “did not mediate ADCC”.
